The source made the active and inactive calls. The rule behind the calls is not given here.
How the values were obtained:
SCLC = test: In vitro anticancer activity against 2 NCI SCLC cell lines; inactive; assay type: functional, cell-based
NCI [1] = test: In vitro anticancer activity against 6 NCI ovarian cancer cell lines; inactive; assay type: functional, cell-based
NCI [2] = test: In vitro anticancer activity against 8 NCI CNS cancer cell lines; inactive; assay type: functional, cell-based
[3] = In vitro anticancer activity against 9 NCI melanoma cell lines; inactive; assay type: functional
NSCLC = test: In vitro anticancer activity against 11 NCI NSCLC cell lines; inactive; assay type: functional, cell-based
Cancer cell lines = test: In vitro anticancer activity against 9 NCI colon cancer cell lines; inactive; assay type: functional, cell-based
NCI [4] = test: In vitro anticancer activity against 9 NCI renal cancer cell lines; inactive; assay type: functional, cell-based
RPMI-8226 = test: In vitro anticancer activity against RPMI-8226 leukemia cell line; assay type: functional; conditions: Homo sapiens
K562 = test: In vitro anticancer activity against K-562 leukemia cell line; assay type: functional; conditions: Homo sapiens
MOLT-4 = test: In vitro anticancer activity against MOLT-4 leukemia cell line; assay type: functional; conditions: Homo sapiens
SR = test: In vitro anticancer activity against SR leukemia cell line; assay type: functional; conditions: Homo sapiens
CCRF-CEM [5] = test: In vitro anticancer activity against CCRF-CEM leukemia cell line; assay type: functional; conditions: Homo sapiens
HL-60 = test: In vitro anticancer activity against HL-60(TB) leukemia cell line; assay type: functional; conditions: Homo sapiens
CCRF-CEM [6] = test: In vitro anticancer activity against CCRF-CEM leukemia cell line.(Maximum Concentration); assay type: functional; conditions: Homo sapiens

Row | Compound | Activity (SCLC) | Activity (NCI [1]) | Activity (NCI [2]) | Activity [3] | Activity (NSCLC) | Activity (Cancer cell lines) | Activity (NCI [4]) | GI50 (RPMI-8226) [µM] | GI50 (K562) [µM] | GI50 (MOLT-4) [µM] | GI50 (SR) [µM] | GI50 (CCRF-CEM [5]) [µM] | GI50 (HL-60) [µM] | GI50 (CCRF-CEM [6]) [µM]
1 | O=C(NCCCl)Sc1ccccc1 | inactive | inactive | inactive | inactive | inactive | inactive | inactive |  |  |  |  |  |  | 
2 | CCOC(=O)CSC(=O)NCCCl | inactive | inactive | inactive | inactive | inactive | inactive | inactive | > 100 | 29 | > 100 | > 100 | 7.22 | 22.3 | 
3 | O=C(NCCCl)SCCO | inactive | inactive | inactive | inactive | inactive | inactive | inactive | > 100 | > 100 | > 100 | > 100 |  | > 100 | > 100

From ChEMBL document CHEMBL1152086, “Synthesis and in vitro anti-HIV and antitumor activity of new 2-chloroethyl thiocarbamates” (1995)
